Nine compounds from US20120220581A1, “IMIDAZO[1,2-b]PYRIDAZINE DERIVATIVES AND THEIR USE AS PDE10 INHIBITORS” (Janssen-Cilag, S.A., priority 2009, published 2012) can be followed below.

One test concerns the target PDE4D3 (Homo sapiens, UniProt Q08499). The test can be described thus: In vitro PDE selectivity assay (SPA), PDE4D3. It is filed as biochemical. The note with it: hPDE4D3; read-out: PDE 4D3 (expressed as pIC50) (converted). How it is done:
(§1) Rat recombinant PDE10A (rPDE10A2) was expressed in Sf9 cells using a recombinant rPDE10A baculovirus construct. Cells were harvested after 48 h of infection and the rPDE10A protein was purified by metal chelate chromatography on Ni-sepharose 6FF. Tested compounds were dissolved and diluted in 100% DMSO to a concentration 100 fold of the final concentration in the assay. Compound dilutions (0.4 μl) were added in 384 well plates to 20 μl of incubation buffer (50 mM Tris pH 7.8, 8.3 mM MgCl2, 1.7 mM EGTA). 10 μl of rPDE10A enzyme in incubation buffer was added and the reaction was started by addition of 10 μl substrate to a final concentration of 60 nM cAMP and 0.008 μCi ^3H-cAMP. The reaction was incubated for 60 minutes at room temperature. After incubation, the reaction was stopped with 20 μl of stop solution consisting of 17.8 mg/ml PDE SPA (scintillation proximity assay) beads. After sedimentation of the beads during 30 minutes the radioactivity was measured in a Perkin Elmer Topcount scintillation counter and results were expressed as cpm. For blanc values the enzyme was omitted from the reaction and replaced by incubation buffer. Control values were obtained by addition of a final concentration of 1% DMSO instead of compound. The same assay principle is applied for the measurement of the affinity of the compound for other members of the PDE family with appropriate modifications in incubation buffer, substrate concentration, incubation time and stop solution. An overview of the different protocols is presented in table A. A best fit curve is fitted by a minimum sum of squares method to the plot of % of control value substracted with blanc value versus compound concentration and the half maximal inhibitory concentration (IC50) value is derived from this curve.
(§2) The compounds of the invention are generally selective for PDE10 compared to other PDEs and there are a few that also have affinity for PDE1B1, 4D3 and 5A3.

Another test addresses PDE5A3 (Homo sapiens, UniProt O76074). The test can be described thus: In vitro PDE selectivity assay (SPA), PDE5A3. In kind it is biochemical. The note with it: hPDE5A3; read-out: PDE 5A3 (expressed as pIC50) (converted). The protocol: as §1, §2
For test [1], the target named is T1, Rat recombinant PDE10A (rPDE10A2) (Rattus norvegicus, UniProt Q9QYJ6).
T1 construct: inferred from the Ni metal chelate purification; made in house; host or cells: Sf9 insect cells (baculovirus)
T1 sequence (Q9QYJ6 1-794): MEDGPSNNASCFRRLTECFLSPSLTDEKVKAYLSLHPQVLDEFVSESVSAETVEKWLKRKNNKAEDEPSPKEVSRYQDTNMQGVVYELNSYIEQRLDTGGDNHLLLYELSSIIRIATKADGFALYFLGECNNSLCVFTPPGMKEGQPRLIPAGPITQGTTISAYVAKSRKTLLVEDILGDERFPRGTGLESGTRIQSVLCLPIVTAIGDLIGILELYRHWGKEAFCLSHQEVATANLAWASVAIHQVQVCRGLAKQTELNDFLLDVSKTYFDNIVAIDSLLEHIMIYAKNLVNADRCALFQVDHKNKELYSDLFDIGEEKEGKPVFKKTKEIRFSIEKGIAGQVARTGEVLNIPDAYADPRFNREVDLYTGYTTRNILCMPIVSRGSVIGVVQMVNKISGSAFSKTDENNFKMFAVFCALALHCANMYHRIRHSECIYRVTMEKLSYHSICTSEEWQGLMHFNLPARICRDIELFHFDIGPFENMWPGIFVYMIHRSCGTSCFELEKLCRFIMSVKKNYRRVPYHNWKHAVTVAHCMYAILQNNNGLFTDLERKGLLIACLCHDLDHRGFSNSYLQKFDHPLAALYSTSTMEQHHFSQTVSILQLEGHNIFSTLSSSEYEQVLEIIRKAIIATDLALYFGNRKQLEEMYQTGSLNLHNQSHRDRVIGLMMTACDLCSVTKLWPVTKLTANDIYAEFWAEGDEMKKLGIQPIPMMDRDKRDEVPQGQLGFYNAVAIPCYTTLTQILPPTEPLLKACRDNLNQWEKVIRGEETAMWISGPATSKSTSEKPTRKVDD
The test can be described thus: In vitro assay PDE10A (SPA, 3H-cAMP). In kind it is biochemical. The method, boiled down:
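Rat PDE10A2 expressed in Sf9 cells and Ni-purified; incubated with 60 nM cAMP plus 0.008 μCi 3H-cAMP in 50 mM Tris pH 7.8, 8.3 mM MgCl2, 1.7 mM EGTA for 60 min at room temperature. Product quantified by scintillation proximity counting; final DMSO 1%.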

The test system of test [2] is apomorphine-induced stereotypy in rats. The test can be described thus: Apomorphine-induced stereotypy in rats (APO). It is filed as in vivo. The settings on record: Rattus norvegicus, ≧: active in 30% of the animals at the indicated dose, ≦: active in 60%. The protocol: Apomorphine (1.0 mg/kg, i.v.)-induced stereotypy (compulsive sniffing, licking, chewing) was scored every 5 min over the first hour after injection of apomorphine, following a 1 hour interval pre-treatment with the test compound. The score system was: (3) pronounced, (2) moderate, (1) slight, and (0) absent.

Test [3] deals with other members of the PDE family (Homo sapiens, UniProt Q9HCR9). Briefly: In vitro PDE selectivity assay (SPA), other members of the PDE family (protocols in Table A). In kind it is biochemical. The settings on record: hPDE11A4; read-out: PDE 11A4 (expressed as pIC50) (converted). The method, boiled down:
(§3)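 Inhibition of each PDE isoform was measured by scintillation proximity assay with ³H-cyclic nucleotide substrate, using incubation buffer, substrate concentration, incubation time and stop solution adapted per isoform. Compounds were tested in dose-response against 1% DMSO controls and enzyme-free blanks. IC50 came from a least-squares fit of blank-subtracted % of control versus concentration.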

Test [4] deals with other members of the PDE family (Homo sapiens, UniProt O76083). The description is as above. In kind it is biochemical. The note with it: hPDE9A; read-out: PDE 9A (expressed as pIC50) (converted). The method, boiled down:
as §3

The target of test [5] is other members of the PDE family (Homo sapiens, UniProt Q13946). The description is as above. It is filed as biochemical. The settings on record: hPDE7A1; read-out: PDE 7A (expressed as pIC50) (converted). The method, boiled down:
as §3

The target in test [6] is other members of the PDE family (Homo sapiens, UniProt O00408). Described as above. It is filed as biochemical. The settings on record: hPDE2A; read-out: PDE 2A (expressed as pIC50) (converted). A digest of the protocol:
as §3

In test [7] the target is other members of the PDE family (Homo sapiens, UniProt Q14432). Described as above. In kind it is biochemical. The note with it: hPDE3A; read-out: PDE 3A (expressed as pIC50) (converted). The method, boiled down:
as §3

[8] abbreviates: Table 4 in vitro selectivity, read-out: PDE 10A2 (expressed as pIC50) (converted).
[9] abbreviates: pIC50 corresponds to the −log IC50 expressed in mol/L, read-out: PDE10A2 pIC50 (converted).
[10] abbreviates: dose at which 50% of the tested animals show the effect.
Where [11] appears, read: po, * compound not soluble, tested orally as a suspension.

Read-outs that look alike come from different tables or passages of the source. A value given as a limit tells only on which side of the number the result lay.

By ED50 is commonly meant the midpoint of the dose-response relation. A low value points to greater potency.

Sequence of other members of the PDE family (Homo sapiens, UniProt O76083) (O76083 whole entry): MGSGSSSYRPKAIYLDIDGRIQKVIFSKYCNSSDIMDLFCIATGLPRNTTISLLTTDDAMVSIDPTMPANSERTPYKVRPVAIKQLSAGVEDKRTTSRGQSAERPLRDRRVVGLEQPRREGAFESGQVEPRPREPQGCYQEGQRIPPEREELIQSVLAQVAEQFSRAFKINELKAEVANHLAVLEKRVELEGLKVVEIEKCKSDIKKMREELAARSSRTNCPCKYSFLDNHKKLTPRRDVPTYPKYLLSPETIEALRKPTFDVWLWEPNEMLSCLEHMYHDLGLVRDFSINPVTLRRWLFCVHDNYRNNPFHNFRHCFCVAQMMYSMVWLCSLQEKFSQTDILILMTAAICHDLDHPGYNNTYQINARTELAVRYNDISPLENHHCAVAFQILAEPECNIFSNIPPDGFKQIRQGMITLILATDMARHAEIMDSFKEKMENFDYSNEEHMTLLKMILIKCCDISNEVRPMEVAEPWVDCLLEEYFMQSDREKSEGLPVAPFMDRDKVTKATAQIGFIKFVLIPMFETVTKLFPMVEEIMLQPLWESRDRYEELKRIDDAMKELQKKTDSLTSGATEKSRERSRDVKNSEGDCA
Sequence of other members of the PDE family (Homo sapiens, UniProt O00408) (O00408 whole entry): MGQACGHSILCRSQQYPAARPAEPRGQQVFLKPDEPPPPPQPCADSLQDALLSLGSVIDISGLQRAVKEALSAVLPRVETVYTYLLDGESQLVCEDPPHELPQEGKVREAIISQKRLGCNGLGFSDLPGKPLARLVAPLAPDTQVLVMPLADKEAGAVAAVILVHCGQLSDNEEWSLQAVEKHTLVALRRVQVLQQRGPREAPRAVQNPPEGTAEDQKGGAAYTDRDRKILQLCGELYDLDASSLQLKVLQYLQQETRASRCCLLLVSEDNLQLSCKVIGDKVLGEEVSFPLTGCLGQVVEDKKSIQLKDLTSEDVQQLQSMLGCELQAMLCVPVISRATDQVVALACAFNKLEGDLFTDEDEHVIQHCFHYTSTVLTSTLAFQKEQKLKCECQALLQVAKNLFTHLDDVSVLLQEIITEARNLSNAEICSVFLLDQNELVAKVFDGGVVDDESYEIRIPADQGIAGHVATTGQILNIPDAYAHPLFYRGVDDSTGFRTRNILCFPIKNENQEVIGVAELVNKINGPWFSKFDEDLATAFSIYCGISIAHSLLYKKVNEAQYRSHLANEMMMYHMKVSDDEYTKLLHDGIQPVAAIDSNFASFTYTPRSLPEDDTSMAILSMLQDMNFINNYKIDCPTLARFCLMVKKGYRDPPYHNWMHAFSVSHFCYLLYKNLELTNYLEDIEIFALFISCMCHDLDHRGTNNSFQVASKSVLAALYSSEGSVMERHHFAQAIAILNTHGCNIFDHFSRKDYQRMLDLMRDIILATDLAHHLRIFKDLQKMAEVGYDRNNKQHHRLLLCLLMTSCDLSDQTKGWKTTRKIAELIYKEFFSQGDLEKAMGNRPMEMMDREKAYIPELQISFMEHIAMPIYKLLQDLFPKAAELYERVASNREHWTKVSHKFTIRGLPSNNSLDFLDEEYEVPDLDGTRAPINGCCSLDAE
Sequence of other members of the PDE family (Homo sapiens, UniProt Q13946) (Q13946 whole entry): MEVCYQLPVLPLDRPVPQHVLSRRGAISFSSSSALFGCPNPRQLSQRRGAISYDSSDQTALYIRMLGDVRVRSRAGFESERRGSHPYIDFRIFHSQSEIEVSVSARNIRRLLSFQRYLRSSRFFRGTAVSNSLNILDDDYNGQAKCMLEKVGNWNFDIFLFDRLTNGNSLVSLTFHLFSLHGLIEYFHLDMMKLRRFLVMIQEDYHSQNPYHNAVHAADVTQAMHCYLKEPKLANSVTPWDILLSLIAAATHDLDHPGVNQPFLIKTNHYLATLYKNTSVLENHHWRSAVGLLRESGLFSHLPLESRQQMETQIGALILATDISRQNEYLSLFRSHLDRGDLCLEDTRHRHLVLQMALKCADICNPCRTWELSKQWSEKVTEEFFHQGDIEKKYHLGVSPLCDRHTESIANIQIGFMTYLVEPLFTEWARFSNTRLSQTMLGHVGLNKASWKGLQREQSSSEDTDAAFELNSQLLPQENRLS
Sequence of PDE4D3 (Q08499 1-673 isoform Q08499-2): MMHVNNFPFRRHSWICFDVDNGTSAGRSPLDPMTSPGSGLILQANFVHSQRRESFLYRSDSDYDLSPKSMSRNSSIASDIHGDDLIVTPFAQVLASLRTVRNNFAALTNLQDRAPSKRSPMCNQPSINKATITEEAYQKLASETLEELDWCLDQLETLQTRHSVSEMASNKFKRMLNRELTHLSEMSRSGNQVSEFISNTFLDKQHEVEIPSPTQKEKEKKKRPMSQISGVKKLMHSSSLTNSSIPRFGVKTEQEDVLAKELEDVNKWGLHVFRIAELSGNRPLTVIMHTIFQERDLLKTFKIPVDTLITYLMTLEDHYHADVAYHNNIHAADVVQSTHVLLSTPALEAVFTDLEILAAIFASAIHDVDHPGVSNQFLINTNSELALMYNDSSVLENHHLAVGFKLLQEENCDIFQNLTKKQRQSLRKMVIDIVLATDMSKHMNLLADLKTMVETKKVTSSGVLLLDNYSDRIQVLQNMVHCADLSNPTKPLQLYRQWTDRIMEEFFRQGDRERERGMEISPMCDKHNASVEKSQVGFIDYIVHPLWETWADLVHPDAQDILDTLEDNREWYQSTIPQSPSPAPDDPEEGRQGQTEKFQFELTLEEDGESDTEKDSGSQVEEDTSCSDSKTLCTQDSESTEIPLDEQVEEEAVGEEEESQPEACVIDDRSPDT
Sequence of other members of the PDE family (Homo sapiens, UniProt Q14432) (Q14432 whole entry): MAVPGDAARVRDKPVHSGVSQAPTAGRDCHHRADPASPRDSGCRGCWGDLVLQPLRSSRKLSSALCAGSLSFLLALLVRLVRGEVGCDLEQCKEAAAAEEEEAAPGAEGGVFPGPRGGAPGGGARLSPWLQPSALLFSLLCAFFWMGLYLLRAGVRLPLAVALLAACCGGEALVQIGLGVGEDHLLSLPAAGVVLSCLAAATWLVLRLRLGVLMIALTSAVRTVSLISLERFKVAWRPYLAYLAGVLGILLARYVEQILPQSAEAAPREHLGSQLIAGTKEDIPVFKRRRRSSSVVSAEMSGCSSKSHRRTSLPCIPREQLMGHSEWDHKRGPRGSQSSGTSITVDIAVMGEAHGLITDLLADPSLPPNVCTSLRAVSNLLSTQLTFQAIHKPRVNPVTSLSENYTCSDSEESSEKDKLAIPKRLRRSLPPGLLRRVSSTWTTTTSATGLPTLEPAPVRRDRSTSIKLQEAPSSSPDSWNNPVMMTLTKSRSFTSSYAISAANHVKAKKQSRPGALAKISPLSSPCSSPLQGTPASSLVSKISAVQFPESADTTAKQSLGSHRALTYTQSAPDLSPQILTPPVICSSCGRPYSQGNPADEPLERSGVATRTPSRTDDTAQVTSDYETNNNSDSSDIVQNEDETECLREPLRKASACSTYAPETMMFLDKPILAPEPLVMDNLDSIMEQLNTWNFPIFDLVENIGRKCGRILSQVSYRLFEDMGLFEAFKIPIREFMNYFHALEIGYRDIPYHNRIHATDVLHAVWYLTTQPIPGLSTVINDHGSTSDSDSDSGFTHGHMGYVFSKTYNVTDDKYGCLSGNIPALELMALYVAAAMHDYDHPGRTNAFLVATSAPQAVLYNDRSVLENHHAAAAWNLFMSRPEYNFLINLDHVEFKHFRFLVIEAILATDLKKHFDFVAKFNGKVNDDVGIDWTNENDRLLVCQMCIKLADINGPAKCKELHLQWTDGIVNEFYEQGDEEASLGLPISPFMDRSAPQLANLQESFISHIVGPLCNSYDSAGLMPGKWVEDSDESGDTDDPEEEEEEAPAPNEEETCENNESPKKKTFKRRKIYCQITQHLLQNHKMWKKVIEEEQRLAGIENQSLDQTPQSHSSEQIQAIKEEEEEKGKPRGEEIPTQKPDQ
Sequence of other members of the PDE family (Homo sapiens, UniProt Q9HCR9) (Q9HCR9 whole entry, canonical isoform): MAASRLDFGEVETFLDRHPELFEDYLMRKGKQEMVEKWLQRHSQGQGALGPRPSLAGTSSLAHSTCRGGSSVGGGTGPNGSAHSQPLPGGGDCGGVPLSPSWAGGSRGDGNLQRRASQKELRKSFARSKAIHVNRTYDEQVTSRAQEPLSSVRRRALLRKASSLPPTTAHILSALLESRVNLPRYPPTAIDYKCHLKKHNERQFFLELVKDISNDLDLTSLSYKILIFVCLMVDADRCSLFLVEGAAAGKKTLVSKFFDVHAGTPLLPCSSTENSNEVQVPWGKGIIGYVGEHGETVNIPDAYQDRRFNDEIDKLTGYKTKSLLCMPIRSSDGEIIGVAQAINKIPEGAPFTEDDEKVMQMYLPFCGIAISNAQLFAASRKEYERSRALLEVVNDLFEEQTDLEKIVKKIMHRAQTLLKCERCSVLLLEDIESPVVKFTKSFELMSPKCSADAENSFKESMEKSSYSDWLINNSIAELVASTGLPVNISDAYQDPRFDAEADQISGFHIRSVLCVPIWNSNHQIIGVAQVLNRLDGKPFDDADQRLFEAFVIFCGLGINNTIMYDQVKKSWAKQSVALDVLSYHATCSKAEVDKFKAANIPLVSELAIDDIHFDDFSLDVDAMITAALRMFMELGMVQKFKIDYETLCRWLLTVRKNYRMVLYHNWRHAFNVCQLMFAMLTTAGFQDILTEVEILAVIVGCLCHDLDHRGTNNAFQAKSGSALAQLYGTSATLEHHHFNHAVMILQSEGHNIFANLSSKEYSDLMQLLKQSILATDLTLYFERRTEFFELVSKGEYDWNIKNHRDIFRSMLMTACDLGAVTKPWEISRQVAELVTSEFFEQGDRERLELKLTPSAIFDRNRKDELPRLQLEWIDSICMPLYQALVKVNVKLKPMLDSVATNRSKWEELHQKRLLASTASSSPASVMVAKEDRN

Turning to `COCCc1ccc(-c2c(C3CC3)nc3c(-c4ccncc4)ccnn23)cn1` [compound 10, 2-cyclopropyl-3-[6-(2-methoxyethyl)-3-pyridinyl]-8-(4-pyridinyl)-imidazo[1,2-b]pyridazine], the IC50 on PDE4D3 was 1.26 µM; on PDE5A3, 1.29 µM; in test [1] (setting [8]), 0.0115 µM; in test [1] (setting [9]) it was 0.0115 µM; in [3], 1.41 µM; in test [4], over 10 µM. The IC50 in test [5] was over 10 µM; in test [6] it was 6.61 µM; in test [7], over 10 µM. In test [2] (setting [10]), this compound registered an ED50 of 1.2 mg/kg.
With `COC(C)(C)CCc1ccc(-c2c(C)nc3c(N4CCOCC4)ccnn23)cn1` [compound 29, 3-[6-(3-methoxy-3-methylbutyl)-3-pyridinyl]-2-methyl-8-(4-morpholinyl)-imidazo[1,2-b]pyridazine], the IC50 is over 10 µM on PDE4D3; 4.47 µM at PDE5A3; 0.0437 µM in [1] (setting [8]); 0.0437 µM in test [1] (setting [9]); over 10 µM in test [3]; over 10 µM in test [4]. The IC50 in test [5] is over 10 µM; in [6] it was 1.2 µM; in [7], over 10 µM. The compound further returned a median effective dose (ED50) in test [2] (setting [10]) of at least 2.5 mg/kg.
As to `Cc1nc2c(N3CCOCC3)ccnn2c1-c1ccc(C(C)C)nc1` [compound 32, 2-methyl-3-[6-(1-methylethyl)-3-pyridinyl]-8-(4-morpholinyl)-imidazo[1,2-b]pyridazine], the IC50 is over 10 µM at PDE4D3; over 10 µM at PDE5A3; 0.0776 µM in test [1] (setting [8]); 0.0776 µM in test [1] (setting [9]); over 10 µM in [3]; over 10 µM in [4]. Moreover, the IC50 in [5], in test [6] and in test [7] was over 10 µM throughout. Further, the 50% effect level in test [2] (setting [10]) (ED50) was put at a dose of 5 mg/kg.
Turning to `Cc1nc2c(N3CCOCC3)ccnn2c1-c1ccc(C2CC2)nc1` [compound 33, 3-(6-cyclopropyl-3-pyridinyl)-2-methyl-8-(4-morpholinyl)-imidazo[1,2-b]pyridazine], the IC50 at PDE4D3 was over 10 µM; on PDE5A3, over 10 µM; in test [1] (setting [8]) it was 0.0776 µM; in test [1] (setting [9]), 0.0776 µM; in [3], over 10 µM; in [4], over 10 µM. For the same compound, the IC50 in [5], in test [6] and in test [7] was over 10 µM throughout. Moreover, in test [2] (setting [11]), the ED50 was at least 2.5 mg/kg.
In the case of `Cc1nc2c(N3CCOCC3)ccnn2c1-c1ccnc(N2CCOCC2)c1` [compound 91, 2-methyl-8-(4-morpholinyl)-3-[2-(4-morpholinyl)-4-pyridinyl]-imidazo[1,2-b]pyridazine], the IC50 was over 10 µM at PDE4D3; 8.51 µM at PDE5A3; 0.0468 µM in test [1] (setting [8]); 0.0468 µM in test [1] (setting [9]); over 10 µM in [3]; over 10 µM in test [4]. Besides, the IC50 in [5], in [6] and in [7] was over 10 µM each time. In [2] (setting [10]), the ED50 was 1.2 mg/kg.
Regarding `COCCn1cc(-c2c(C)nc3c(N4CCOCC4)cc(C)nn23)cn1` [compound 133, 3-[1-(2-methoxyethyl)-1H-pyrazol-4-yl]-2,6-dimethyl-8-(4-morpholinyl)-imidazo[1,2-b]pyridazine], the IC50 was over 10 µM at PDE4D3; 2.4 µM at PDE5A3; 0.0955 µM in [1] (setting [8]); 0.0955 µM in test [1] (setting [9]); over 10 µM in test [3]; over 10 µM in test [4]. The IC50 in test [5], in test [6] and in test [7] was over 10 µM each time. In test [2] (setting [10]), this compound gave an ED50 of 3.1 mg/kg.
As for `COCCn1cc(-c2c(C)nc3c(-c4ccncc4)cc(C)nn23)cn1` [compound 134, 3-[1-(2-methoxyethyl)-1H-pyrazol-4-yl]-2,6-dimethyl-8-(4-pyridinyl)-imidazo[1,2-b]pyridazine], the IC50 on PDE4D3 was 5.5 µM; at PDE5A3, 0.589 µM; in test [1] (setting [8]), 0.105 µM; in [1] (setting [9]), 0.105 µM; in test [3] it was 5.37 µM; in test [4], over 10 µM. The IC50 in [5] was 4.9 µM; in [6] it was 8.13 µM; in [7], over 10 µM. The compound also showed an ED50 in [2] (setting [10]) of 5 mg/kg.
Regarding `Cc1nc2c(-c3ccncc3)ccnn2c1-c1cnn(CC(F)(F)F)c1` [compound 135, 2-methyl-8-(4-pyridinyl)-3-[1-(2,2,2-trifluoroethyl)-1H-pyrazol-4-yl]-imidazo[1,2-b]pyridazine], the IC50 on PDE4D3 is over 10 µM; at PDE5A3, 2.57 µM; in test [1] (setting [8]) it was 0.0182 µM; in [1] (setting [9]) it was 0.0182 µM; in test [3], 5.89 µM; in test [4] it was over 10 µM. Further, the IC50 in test [5] is over 10 µM; in [6], over 10 µM; in test [7], 7.41 µM. In [2] (setting [11]), this compound yielded an ED50 of 3.1 mg/kg.
Take `Cc1nc2c(N3CCOCC3)cc(Cl)nn2c1-c1cnn(CC(F)(F)F)c1` [compound 146, 6-chloro-2-methyl-8-(4-morpholinyl)-3-[1-(2,2,2-trifluoroethyl)-1H-pyrazol-4-yl]-imidazo[1,2-b]pyridazine]: the IC50 at PDE4D3 is over 10 µM; at PDE5A3 it was 1.91 µM; in test [1] (setting [8]), 0.0525 µM; in test [1] (setting [9]) it was 0.0525 µM; in [3], over 10 µM; in test [4], over 10 µM. The values for the IC50 in test [5], in test [6] and in test [7] were 8.51 µM, over 10 µM and over 10 µM, respectively.
